Data on three compounds can be found in patent US4875925A, “Herbicidal method using diflufenican” (May & Baker Limited, priority 1986, dated 1989).

Holding throughout (assay type): in vivo
The test system of data set [1] is Winter wheat (variety Galahad). The data set can be described thus: Field crop phytotoxicity, winter wheat (Experiment 3). Particulars: diflufenican 80 g/ha, trifluralin 800 g/ha, or both. The text has this: (§1) Diflufenican formulated as a 50% w/v aqueous suspension concentrate (Example 2), trifluralin as a 48% w/v emulsifiable concentrate (commercial product and a mixed formulation of diflufenican and trifluralin containing 44% w/v total active ingredient (Example 6) were applied at 0.16 l, 1.67 l and 2 l/ha respectively pre-emergence and just at emergence to winter barley and winter wheat to control Lamium purpureum pre-emergence under field conditions. The treatments were applied to three replicate 30 m^2 plots in a spray volume of 220 l/ha (winter barley) and 206 l/ha (winter wheat) using a motorised small plot sprayer. Visual % phytotoxicity was recorded and the results are given below.

The subject of data set [2] is Winter barley (variety Igri). Kind of data set: Field crop phytotoxicity, winter barley (Experiment 3). Particulars: diflufenican 80 g/ha, trifluralin 800 g/ha, or both.
From the text: as §1

The test system of a further data set is Lamium purpureum. Kind of data set: Field control of Lamium purpureum in winter barley and winter wheat (Experiment 3). The note with it: diflufenican 80 g/ha, trifluralin 800 g/ha, or both; for % weed phytotoxicity 72 days after spraying: in winter barley (variety Igri); for % weed phytotoxicity 98 days after spraying: in winter wheat (variety Galahad).
From the text: as §1

The next data set relates to Stellaria media. Kind of data set: Greenhouse post-emergence weed control, Stellaria media (Experiment 2). Particulars: 2 leaf stage, 14 days after treatment. The procedure: (§2) Greenhouse experiment showing the nature of biological synergism between pendimethalin and diflufenican applied post-emergence
(§3) A similar experiment to that hereinbefore described in Experiment 1 was carried out with pendimethalin and diflufenican applied to either 4 plants of Stellaria media at the 2 leaf stage or 4 plants of Galium aparine at the 2 whorl (branching initiated) stage. The following 90% herbicidally effective doses (ED90) in grams of diflufenican per hectare were calculated from the mean percentage weed control 14 days after treatment.

A further data set concerns Galium aparine. The data set can be described thus: Greenhouse post-emergence weed control, Galium aparine (Experiment 2). Particulars: 2 whorl stage, 14 days after treatment. The procedure:
as §2, §3

Another data set has as its system Alopecurus myosuroides. Kind of data set: Greenhouse pre-emergence weed control, pendimethalin and diflufenican (Experiment 1). Particulars: 22 days after treatment. The procedure:
Greenhouse experiment showing the nature of biological synergism between pendimethalin and diflufenican applied pre-emergence
A factorial experiment with 30 treatments was carried out to investigate the interaction of pendimethalin and diflufenican at a wide range of doses i.e. 0, 250, 500, 1000 and 2000 g/ha of pendimethalin plus diflufenican at 0, 31, 62, 125, 250 and 500 g/ha.
All treatments were made in an appropriate volume of water by using appropriate quantities of a 33% w/v emulsifiable concentrate of pendimethalin (commercial product) and diflufenican formulated as an experimental aqueous suspension concentrate (Example 2 hereinafter) containing 50% w/v active ingredient to give the above dose rates in a spray volume of 290 l/ha. All treatments were applied using a laboratory sprayer fitted with a Sparying Systems Teejet SS 8003E operating at 2.94 kgf/cm^2. Treatments were applied to about 20 Alopecurus myosuroides seeds sown 1 cm deep in a loamy soil in 7.5 cm square pots. There were 4 replicate pots per treatment which were arranged in a randomised block design in a glasshouse after treatment. The pots were watered by a combination of overhead irrigation and sub-irrigation. A visual assessment of weed control was made 22 days after treatment as a percentage compared to the untreated pots. […]

Consider `CCCN(CCC)c1c([N+](=O)[O-])cc(C(F)(F)F)cc1[N+](=O)[O-]` [Trifluralin, 2,6-dinitro-N,N-dipropyl-4-trifluoromethylaniline], for which the “Maximum % crop phytotoxicity” value in data set [1] turned out to be 0%. The “Maximum % crop phytotoxicity” value in data set [2] was found to be 0%. In the data set on Lamium purpureum, the “% weed phytotoxicity 72 days after spraying” value is 20% and the “% weed phytotoxicity 98 days after spraying” value is on record as 5%.

As for `O=C(Nc1ccc(F)cc1F)c1cccnc1Oc1cccc(C(F)(F)F)c1` [diflufenican, N-(2,4-difluorophenyl)-2-(3-trifluoromethylphenoxy)nicotinamide], the “Maximum % crop phytotoxicity” value is 0% in data set [1] and 5.8% in data set [2]. Further, the “ED90 (90% herbicidally effective dose)” value in the data set on Stellaria media (diflufenican alone) is 340 grams of diflufenican per hect; in the data set on Galium aparine (diflufenican alone), > 500 grams of diflufenican per hect. Besides, the “% weed phytotoxicity 72 days after spraying” value in the data set on Lamium purpureum amounted to 40%. Besides, the “% weed phytotoxicity 98 days after spraying” value with Lamium purpureum is 80%. The “ED50 (50% herbicidally effective dose)” value in the data set with Alopecurus myosuroides (diflufenican alone) was 370 grams of diflufenican per hect.

For the compound `CCC(CC)Nc1c([N+](=O)[O-])cc(C)c(C)c1[N+](=O)[O-]` [pendimethalin, N-(1-ethylpropyl)-3,4-dimethyl-2,6-dinitroaniline], the entries for the “ED90 of pendimethalin alone” value with Stellaria media (pendimethalin alone) and with Galium aparine (pendimethalin alone) were 1653 g/ha and “greater than 2000 g/ha”, respectively. Further, the “ED50 of pendimethalin alone” value with Alopecurus myosuroides (pendimethalin alone) was 2071 g/ha.
